In patent US20210085640A1, “ACYLATED CATECHIN POLYPHENOLS AND METHODS OF THEIR USE FOR THE TREATMENT OF CANCER” (Flagship Pioneering Innovations V, Inc., priority 2018, published 2021):
pIC50: −log10 of the molar value.

Key:
Type in all cases: cell-based
[1] = test system: Daudi lymphoma cancer cells; test: Cancer cell survival (CellTiter-Glo), Daudi; settings: Homo sapiens, 72 h
Procedure, shortened: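 Daudi cells (4×10^3/well) were exposed for 72 h at 37 °C to nine concentrations of compound, added as 10× solutions spanning 1 μM–10 mM (fatty acids) or 100 nM–1 mM (others). CellTiter-Glo luminescence gave % survival versus untreated, medium-blank corrected; IC50 derived.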

T24 bladder cancer cells = test: Cancer cell survival (CellTiter-Glo), T24; settings: Homo sapiens
Procedure, shortened: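 T24 cells seeded at 4×10^3 cells/well overnight, then exposed 72 h at 37 C, 5% CO2 to nine concentrations in triplicate. Survival measured by CellTiter-Glo luminescence relative to untreated and medium controls; IC50 derived.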

AGS stomach cancer cells = test: Cancer cell survival (CellTiter-Glo), AGS; settings: 72 h
Procedure, shortened: (§1)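 Cells seeded at 4×10^3 cells/well, incubated overnight, then treated in triplicate at nine concentrations for 72 h at 37 C, 5% CO2. Viability by CellTiter-Glo luminescence, survival % normalized to untreated and medium controls; IC50 derived.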

MCF7 breast cancer cells = test: Cancer cell survival (CellTiter-Glo), MCF7; settings: Homo sapiens, 72 h
Procedure, shortened: as §1

A549 lung cancer cells = test: Cancer cell survival (CellTiter-Glo), A549; settings: Homo sapiens, 72 h
Procedure, shortened: as §1

A-431 skin cancer cells = test: Cancer cell survival (CellTiter-Glo), A-431; settings: Homo sapiens, A-431 cells, 72 h
Procedure, shortened: as §1

[2] = test system: PC-3 prostate cancer cells; test: Cancer cell survival (CellTiter-Glo), PC-3; settings: Homo sapiens, PC-3 cells, 72 h
Procedure, shortened: as §1

[3] = test system: HCT 116 colorectal cancer cells; test: Cancer cell survival (CellTiter-Glo), HCT 116; settings: Homo sapiens, HCT 116 cells, 72 h
Procedure, shortened: as §1

[4] = 317 μM, read-out: Cell survival at given concentration
[5] = 1 mM, read-out: Cell survival at given concentration
[6] = 3 mM, read-out: Cell survival at given concentration
[7] = 10 mM, read-out: Cell survival at given concentration

Compound `CCC(=O)O` [propionate] has a viability at 1 µM ([1]; 1 μM, Table 4.2, read-out: Cell survival at given concentration) of 97%, a viability at 3 µM ([1]; 3 μM, Table 4.2, read-out: Cell survival at given concentration) of 97% and a viability at 10 µM ([1]; 10 μM, Table 4.2, read-out: Cell survival at given concentration) of 99%. The viability at 32 µM ([1]; 32 μM, Table 4.2, read-out: Cell survival at given concentration) was 99%, the viability at 100 µM ([1]; 100 μM, Table 4.2, read-out: Cell survival at given concentration) was 101% and the viability at 317 µM [1, 4] was 97%. The viability at 1000 µM [1, 5] was 75%, the viability at 3000 µM [1, 6] was 47% and the viability at 10000 µM [1, 7] was 18%. The pIC50 ([1]; Table 4.2) was 2.56, the viability at 1 µM (T24 bladder cancer cells; T-24, 1 μM, 72 h, Table 3.2, read-out: Cell survival at given concentration) was 99% and the viability at 3 µM (T24 bladder cancer cells; T-24, 3 μM, 72 h, Table 3.2, read-out: Cell survival at given concentration) was 97%. For the same compound, the viability at 10 µM (T24 bladder cancer cells; T-24, 10 μM, 72 h, Table 3.2, read-out: Cell survival at given concentration) was 97%, the viability at 32 µM (T24 bladder cancer cells; T-24, 32 μM, 72 h, Table 3.2, read-out: Cell survival at given concentration) was 99% and the viability at 100 µM (T24 bladder cancer cells; T-24, 100 μM, 72 h, Table 3.2, read-out: Cell survival at given concentration) was 97%. The viability at 317 µM (T24 bladder cancer cells; T-24, 317 μM, 72 h, read-out: Cell survival at given concentration) was 98%, the viability at 1000 µM (T24 bladder cancer cells; T-24, 1 mM, 72 h, read-out: Cell survival at given concentration) was 89% and the viability at 3000 µM (T24 bladder cancer cells; T-24, 3 mM, 72 h, read-out: Cell survival at given concentration) was 83%. The viability at 10000 µM (T24 bladder cancer cells; T-24, 10 mM, 72 h, read-out: Cell survival at given concentration) was 60%, the pIC50 (T24 bladder cancer cells; T-24, 72 h, Table 3.2, read-out: IC50) was < 2.00 and the viability at 1 µM (AGS stomach cancer cells; 1 μM, Table 10.2, read-out: Cell survival at given concentration) was 102%. It also gave a viability at 3 µM (AGS stomach cancer cells; 3 μM, Table 10.2, read-out: Cell survival at given concentration) of 98%, a viability at 10 µM (AGS stomach cancer cells; 10 μM, Table 10.2, read-out: Cell survival at given concentration) of 103% and a viability at 32 µM (AGS stomach cancer cells; 32 μM, Table 10.2, read-out: Cell survival at given concentration) of 101%. The viability at 100 µM (AGS stomach cancer cells; 100 μM, Table 10.2, read-out: Cell survival at given concentration) was 104%, the viability at 317 µM (AGS stomach cancer cells; [4]) was 101% and the viability at 1000 µM (AGS stomach cancer cells; [5]) was 103%. For the same compound, the viability at 3000 µM (AGS stomach cancer cells; [6]) was 96%, the viability at 10000 µM (AGS stomach cancer cells; [7]) was 70% and the viability at 1 µM (MCF7 breast cancer cells; 1 μM, Table 5.2, read-out: Cell survival at given concentration) was 99%. The viability at 3 µM (MCF7 breast cancer cells; 3 μM, Table 5.2, read-out: Cell survival at given concentration) was 97%, the viability at 10 µM (MCF7 breast cancer cells; 10 μM, Table 5.2, read-out: Cell survival at given concentration) was 103% and the viability at 32 µM (MCF7 breast cancer cells; 32 μM, Table 5.2, read-out: Cell survival at given concentration) was 102%. It also gave a viability at 100 µM (MCF7 breast cancer cells; 100 μM, Table 5.2, read-out: Cell survival at given concentration) of 102%, a viability at 317 µM (MCF7 breast cancer cells; [4]) of 94% and a viability at 1000 µM (MCF7 breast cancer cells; [5]) of 91%. For the same compound, the viability at 3000 µM (MCF7 breast cancer cells; [6]) was 77%, the viability at 10000 µM (MCF7 breast cancer cells; [7]) was 51% and the pIC50 (MCF7 breast cancer cells; Table 5.2) was < 2.00. The viability at 1 µM (A549 lung cancer cells; 1 μM, Table 7.2, read-out: Cell survival at given concentration) was 98%, the viability at 3 µM (A549 lung cancer cells; 3 μM, Table 7.2, read-out: Cell survival at given concentration) was 98% and the viability at 10 µM (A549 lung cancer cells; 10 μM, Table 7.2, read-out: Cell survival at given concentration) was 102%. For the same compound, the viability at 32 µM (A549 lung cancer cells; 32 μM, Table 7.2, read-out: Cell survival at given concentration) was 103%, the viability at 100 µM (A549 lung cancer cells; 100 μM, Table 7.2, read-out: Cell survival at given concentration) was 101% and the viability at 317 µM (A549 lung cancer cells; [4]) was 104%. The viability at 1000 µM (A549 lung cancer cells; [5]) was 104%, the viability at 3000 µM (A549 lung cancer cells; [6]) was 94% and the viability at 10000 µM (A549 lung cancer cells; [7]) was 65%. For the same compound, the viability at 1 µM (A-431 skin cancer cells; 1 μM, Table 9.2, read-out: Cell survival at given concentration) was 99%, the viability at 3 µM (A-431 skin cancer cells; 3 μM, Table 9.2, read-out: Cell survival at given concentration) was 101% and the viability at 10 µM (A-431 skin cancer cells; 10 μM, Table 9.2, read-out: Cell survival at given concentration) was 103%. The viability at 32 µM (A-431 skin cancer cells; 32 μM, Table 9.2, read-out: Cell survival at given concentration) was 102%, the viability at 100 µM (A-431 skin cancer cells; 100 μM, Table 9.2, read-out: Cell survival at given concentration) was 104% and the viability at 317 µM (A-431 skin cancer cells; [4]) was 99%. The viability at 1000 µM (A-431 skin cancer cells; [5]) was 98%, the viability at 3000 µM (A-431 skin cancer cells; [6]) was 89% and the viability at 10000 µM (A-431 skin cancer cells; [7]) was 70%. The pIC50 (A-431 skin cancer cells; Table 9.2) was < 2.00, the viability at 1 µM ([2]; 1 μM, Table 8.2, read-out: Cell survival at given concentration) was 100% and the viability at 3 µM ([2]; 3 μM, Table 8.2, read-out: Cell survival at given concentration) was 98%. The viability at 10 µM ([2]; 10 μM, Table 8.2, read-out: Cell survival at given concentration) was 98%, the viability at 32 µM ([2]; 32 μM, Table 8.2, read-out: Cell survival at given concentration) was 101% and the viability at 100 µM ([2]; 100 μM, Table 8.2, read-out: Cell survival at given concentration) was 104%. It also gave a viability at 317 µM [2, 4] of 98%, a viability at 1000 µM [2, 5] of 94% and a viability at 3000 µM [2, 6] of 84%. For the same compound, the viability at 10000 µM [2, 7] was 66%, the pIC50 ([2]; Table 8.2) was < 2.00 and the viability at 1 µM ([3]; 1 μM, Table 6.2, read-out: Cell survival at given concentration) was 98%. It also gave a viability at 3 µM ([3]; 3 μM, Table 6.2, read-out: Cell survival at given concentration) of 102%, a viability at 10 µM ([3]; 10 μM, Table 6.2, read-out: Cell survival at given concentration) of 103% and a viability at 32 µM ([3]; 32 μM, Table 6.2, read-out: Cell survival at given concentration) of 103%. It also gave a viability at 100 µM ([3]; 100 μM, Table 6.2, read-out: Cell survival at given concentration) of 106%, a viability at 317 µM [3, 4] of 103% and a viability at 1000 µM [3, 5] of 98%. The viability at 3000 µM [3, 6] was 66%, the viability at 10000 µM [3, 7] was 19% and the pIC50 ([3]; Table 6.2) was 2.36.
